Data reported in ChEMBL document CHEMBL2390914, “Discovery and SAR of PF-4693627, a potent, selective and orally bioavailable mPGES-1 inhibitor for the potential treatment of inflammation” (Bioorg Med Chem Lett, 2013).

Columns and labels:
[1] = Mean residence time in Sprague-Dawley rat at 1 mg/kg, po; type: ADME, organism-based; parameters: dose 1 mg/kg, route oral; conditions: in vivo
[2] = Volume of distribution at steady state in Sprague-Dawley rat at 1 mg/kg, iv; type: ADME, organism-based; parameters: dose 1 mg/kg, route intravenous; conditions: in vivo, read-out: Vdss
[3] = Plasma concentration in Duncan Hartley guinea pig at 10 mg/kg, po; type: ADME, organism-based, Cavia porcellus; parameters: dose 10 mg/kg, route oral; conditions: in vivo
[4] = Oral bioavailability in Sprague-Dawley rat at 1 mg/kg; type: ADME, organism-based; conditions: in vivo

Row | Structure (SMILES) | MRT [1] [h] | Vd [2] [L/kg] | concentration [3] [nM] | bioavailability [4] [%]
1 | O=C(N[C@H]1CCC[C@H](CO)C1)C1CCN(c2nc3cc(Cl)ccc3o2)CC1 | 0.7 | 0.72 |  | 66
2 | O=C(N[C@H]1CCC[C@H](CO)C1)C1CCN(c2nc3cc(Cl)c(-c4ccc(Cl)cc4)cc3o2)CC1 | 4.42 | 3 | 1200 | 59
3 | CCOc1ccc(-c2cc3oc(N4CCC(C(=O)N[C@H]5CCC[C@H](CO)C5)CC4)nc3cc2Cl)cc1 | 6.26 | 2.4 |  | 17

Results, then the compound that gave them:

Row | MRT [1] [h] | Vd [2] [L/kg] | concentration [3] [nM] | bioavailability [4] [%] | Structure (SMILES)
4 | 0.39 | 1.4 |  |  | O=C(N[C@H]1CCC[C@H](CO)C1)C1CCN(c2nc3cc(Cl)c(C(F)F)cc3o2)CC1
5 | 7.22 | 14 | 1600 | 42 | O=C(N[C@H]1CCC[C@H](CO)C1)C1CCN(c2nc3cc(Cl)c(C(F)(F)F)cc3o2)CC1
6 |  |  | 154000 |  | COc1ccc2cc([C@H](C)C(=O)O)ccc2c1 [NAPROXEN]
7 | 0.44 | 2.1 |  |  | CCc1cc2oc(N3CCC(C(=O)N[C@H]4CCC[C@H](CO)C4)CC3)nc2cc1Cl
8 | 7.78 | 6.4 | 510 | 86 | O=C(N[C@H]1CCC[C@H](CO)C1)C1CCN(c2nc3cc(Cl)c(-c4ccc(OC(F)(F)F)cc4)cc3o2)CC1
